The source of these data is ChEMBL document CHEMBL3286308, “Potent and orally efficacious bisthiazole-based histone deacetylase inhibitors” (ACS Med Chem Lett, 2014).

Chain of Histone deacetylase 1 (Q13547 whole entry): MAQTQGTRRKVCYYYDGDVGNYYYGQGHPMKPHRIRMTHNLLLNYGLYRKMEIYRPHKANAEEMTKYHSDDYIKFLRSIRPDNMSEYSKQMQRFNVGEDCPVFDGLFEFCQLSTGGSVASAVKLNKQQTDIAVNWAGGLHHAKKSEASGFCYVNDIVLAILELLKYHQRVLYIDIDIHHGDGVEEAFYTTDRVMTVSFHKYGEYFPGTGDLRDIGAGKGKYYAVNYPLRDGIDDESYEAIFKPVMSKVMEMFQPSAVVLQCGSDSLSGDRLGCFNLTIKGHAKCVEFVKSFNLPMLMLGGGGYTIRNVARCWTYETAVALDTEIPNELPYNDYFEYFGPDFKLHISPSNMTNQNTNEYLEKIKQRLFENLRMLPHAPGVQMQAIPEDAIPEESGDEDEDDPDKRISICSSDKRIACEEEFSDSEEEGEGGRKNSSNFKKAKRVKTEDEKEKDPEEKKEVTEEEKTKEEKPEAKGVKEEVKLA

This experiment has as its target Histone deacetylase 1 (Homo sapiens, UniProt Q13547).
In the case of `CCCCCCCC(=O)SCC/C=C/[C@@H]1CC(=O)NCc2nc(cs2)-c2nc(cs2)C(=O)N[C@@H](C(C)C)C(=O)O1`, the IC50 came out at 2 µM.

In the case of `CC(C)[C@H](NC(=O)[C@]1(C)CSC(c2cscn2)=N1)C(=O)OC/C=C/CCS`, it took 16.8 µM to reach half-maximal inhibition (IC50).

With `Cc1nc(C2=N[C@](C)(C(=O)N[C@H](C(=O)OC/C=C/CCS)C(C)C)CS2)cs1`, 13.9 µM corresponded to half-maximal inhibition (IC50).

In turn, `CCCCCCCC(=O)SCC/C=C/[C@@H]1CC(=O)NCc2nc(cs2)C2=N[C@@](C)(CS2)C(=O)N[C@@H](C(C)C)C(=O)O1` [LARGAZOLE] had an IC50 of 0.0137 µM.

Broadly, the IC50 is the concentration that gives 50% inhibition.
